18 molecules from US7109193B2, “Tricyclic diazepines tocolytic oxytocin receptor antagonists” (Wyeth, priority 2001, dated 2006) can be followed below.

The target in this experiment is T1, human vasopressin V1a receptor subtype (Homo sapiens, UniProt P37288).
T1 construct: host or cells: CHO cells (pZeoSV vector for the Thibonnier line)
As to the kind of experiment: Vasopressin binding in Chinese Hamster Ovary cell membranes expressing human vasopressin V1a subtype receptors. Conditions: 100 nM, CHO cell membranes, [3H]Manning ligand, values without parentheses. The method, then:
Vasopressin Binding in Chinese Hamster Ovary Cell Membranes Expressing Human Vasopressin V1a Subtype Receptors
The trypsin is removed by aspiration and the cells dislodged by tapping. Cell Culture medium (e.g. 30 mL for 1:30 split) is immediately added and mixed well to inactivate trypsin. 1 mL of detached cells is added to new culture flasks containing fresh cell culture medium (e.g., into 25 mL per T-150 flask), and mixed gently. The cells are incubated at 37° C. in 5% CO2. The medium is changed at 3 to 4 days interval (or as appropriate). […] All steps are done under sterile conditions. B. Membrane Preparation: The cells are washed twice gently with Hank's Balanced Salt solution (e.g,. use 10 mL per T-150 flask). […] The contents are transferred to centrifuge tubes (50 mL) kept in an ice bath. All subsequent steps are done at 4° C. The tubes are centrifuged at 300×g for 15 min (1380 rpm on SORVAL, Model RT6000D, using the rotor for 50 mL tubes). The supernatant is discarded and the cells suspended in homogenizing buffer(10 mM Tris-HCl containing 0.25 M sucrose and 1 mM EDTA, pH 7.4) ensuring that the volume of the buffer is about ten times the volume of the cell pellet. The cells are pooled into a centrifuge tube (50 mL) and homogenized with a Polytron at setting 6 for 10 sec. The homogenate is transferred into a Potter-Elvjehm homogenizer and homogenized with 3 strokes. The homogenate is centrifuged at 1500×g for 10 min at 4° C. (3100 rpm using SORVAL, model RT6000D, using the rotor for 50 mL tubes). The pellet is discarded. The supernatant is centrifuged at 100,000×g for 60 min. at 4° C. (Beckman L8-80M ultracentrifuge; spin at 37,500 rpm with rotor type 70 Ti for 50 mL tubes; 38,000 rpm with type 80Ti for 15 mL tubes; or 35,800 rpm with rotor type 45Ti). The supernantant is discarded and the pellet suspended in 3 to 4 mL of Tris buffer (50 mM TRIS-HCl, pH 7.4). The protein content is estimated by the Bradford or Lowry method. The volume of the membrane suspension is adjusted with the membrane buffer (50 mM Tris-HCl containing 0.1% BSA and 0.1 mM PMSF) to give 3.0 mg/mL (or as appropriate) of protein. The membranes are aliquoted and stored at −70° C. C. Radioligand Binding Assay: In wells of a 96-well format microtiter plate, is added 90, 110 or 130 μL (to make up a final volume of 200 μL) of assay buffer containing 50 mM of Tris-HCl (pH 7.4), BSA (heat inactivated, protease-free), […], 1 mg % aprotinin, 1 mg % leupeptin, 2 mg % 1,10-phenanthroline, 10 mg % trypsin inhibitor, and 0.1 mM PMSF. The inhibitors are added on the day of the experiment. The components are mixed at room temperature, and then kept in ice bath following adjustment of the pH to 7.4. […] 20 μL of 50% DMSO is added for Manning and other peptide ligands and the assay buffer volume is adjusted accordingly. To each well is added 50 μL of frozen membrane suspension thawed immediately prior to use and diluted in the assay buffer to the required concentration (equivalent to 25 to 50 μg of protein/well as needed). 20 μL of 8 nM [^3H]Manning ligand in the assay buffer, prepared just before use, is added, and incubated at room temperature for 60 min. shaking the plate on a mechanical shaker for the first 15 min. The incubation is stopped by rapid filtration of the plate contents followed by wash with ice-cold buffer (50 mM Tris-HCl, pH 7.4) using a cell harvester (Tomtek and Printed filtermat-B filter paper). The filter paper is thoroughly dried (7–12 min. in a microwave oven) and impregnated with MeltiLex B/H melt-on scintillation wax sheets and the radioactivity counted in a betaplate scintillation counter.
Binding data is either reported as percent inhibition at a certain concentration or if an IC50 was calculated, as a nanomolar concentration.

T1 sequence (P37288 whole entry): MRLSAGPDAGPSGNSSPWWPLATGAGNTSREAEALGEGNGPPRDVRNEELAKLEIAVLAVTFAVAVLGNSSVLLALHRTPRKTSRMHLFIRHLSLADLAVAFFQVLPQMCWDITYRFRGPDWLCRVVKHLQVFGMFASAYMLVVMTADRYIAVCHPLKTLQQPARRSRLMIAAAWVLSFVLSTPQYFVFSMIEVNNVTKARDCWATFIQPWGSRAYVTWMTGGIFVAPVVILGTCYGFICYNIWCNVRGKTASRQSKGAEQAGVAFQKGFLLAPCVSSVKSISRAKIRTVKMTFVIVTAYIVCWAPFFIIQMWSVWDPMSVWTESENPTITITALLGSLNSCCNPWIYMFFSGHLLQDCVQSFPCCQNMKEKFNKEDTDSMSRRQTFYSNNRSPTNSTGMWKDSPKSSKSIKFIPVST

Take `Cc1cc(C(=O)N2Cc3ccc(C(=O)N(CCCN(C)C)CCCN(C)C)n3Cc3ccccc32)ccc1-c1ccccc1C(F)(F)F` [Example 3, 10-[(2-Methyl-2′-trifluoromethyl-[1,1′-biphenyl]-4-yl)-carbonyl]-10,11-dihydro-5H-pyrrolo[2,1-c][1,4]benzodiazepine-3-carboxylic acid bis-(3-dimethylamino-propyl)-amide]: the inhibition – broadly, the change of the read-out against control, counted positive when it falls – at 0.1 µM is -8%.

Take `Cc1cccc(N2CCN(C(=O)c3ccc4n3Cc3ccccc3N(C(=O)c3ccc(-c5ccccc5C(F)(F)F)c(C)c3)C4)CC2C)c1` (stereo not drawn) [Example 5, [3-Methyl-4-(3-methyl-phenyl)-piperazin-1-yl]-[10-(2-methyl-2′-trifluoromethyl-[1,1′-biphenyl]-4-yl)carbonyl]-10,11-dihydro-5H-pyrrolo[2,1-c][1,4]benzodiazepin-3-yl-methanone]: the “V1a % inhibition @ 100 nM” value was −6%.

For the molecule `COc1cc2c(cc1OC)N(C(=O)c1ccc(-c3ccccc3C(F)(F)F)c(C)c1)Cc1ccc(C(=O)N(C)CCCN(C)C)n1C2.Cl` [Example 13, N-Methyl-[N-(3-dimethylamino)propyl]-7,8-dimethoxy-10-{[2-methyl-2′-(trifluoromethyl)[1,1′-biphenyl]-4-yl]carbonyl}-10,11-dihydro-5H-pyrrolo[2,1-c][1,4]benzodiazepine-3-carboxamide hydrochloride salt], the “V1a % inhibition @ 100 nM” value was 4%.

Turning to `COc1cc2c(cc1OC)N(C(=O)c1ccc(-c3ccccc3C(F)(F)F)c(C)c1)Cc1ccc(C(=O)N3CCC(=O)CC3)n1C2` [Example 14, 7,8-Dimethoxy-10-{[2-methyl-2′-(trifluoromethyl)-[1,1′-biphenyl]-4-yl]carbonyl}-[(10,11-dihydro-5H-pyrrolo[2,1-c][1,4]benzodiazepin-3-yl)carbonyl]-4-piperidinone], the “V1a % inhibition @ 100 nM” value is recorded as −16%.

On to `COC(=O)c1ccc2c(c1)N(C(=O)c1ccc(-c3ccccc3C(F)(F)F)c(C)c1)Cc1cccn1C2` [Example 26, Methyl 10-{[2-methyl-2′-trifluoromethyl-[1,1′-biphenyl]-4-yl]carbonyl}-10,11-dihydro-5H-pyrrolo[2,1-c][1.4]benzodiazepine-8-carboxylate], for which the “V1a % inhibition @ 100 nM” value was −3%.

In the case of `COc1cc(C(=O)N2Cc3ccc(C(=O)N4CCC[C@H]4CN4CCCC4)n3Cc3ccccc32)ccc1-c1ccccc1Cl` [Example 33, {[10-(2-Methoxy)-2′-chloro-[1,1′-biphenyl]-4-yl]carbonyl}-[(2S)-[(2-pyrrolidin-1-yl)methyl]pyrrolidin-1-yl]-10,11-dihydro-5H-pyrrolo[2,1-c][1,4]benzodiazepin-3-yl-methanone], the “V1a % inhibition @ 100 nM” value is given as 68%.

For the molecule `Cc1cc(C(=O)N2Cc3ccc(C(=O)NCCCN(C)C)n3Cc3ccccc32)ccc1-c1ccccc1C(F)(F)F` [Example 84, N-[3-(Dimethylamino)propyl]-10-{[2-methyl-2′-(trifluoromethyl)[1,1′-biphenyl]-4-yl]carbonyl}-10,11-dihydro-5H-pyrrolo[2,1-c][1 .4]benzodiazepine-3-carboxamide], the “V1a % inhibition @ 100 nM” value turned out to be 1%.

Regarding `COc1ccccc1-c1ccc(C(=O)N2Cc3ccc(C(=O)N(C)CCCN(C)C)n3Cc3ccccc32)cc1OC` [Example 107, 10-[(2,2′-Dimethoxy[1,1′-biphenyl]-4-yl)carbonyl]-N-[3-(dimethylamino)propyl]-N-methyl-10,11-dihydro-5H-pyrrolo[2,1-c][1,4]benzodiazepine-3-carboxamide], the inhibition at 0.1 µM worked out at 15%.

As to `COc1cccc(-c2ccc(C(=O)N3Cc4ccc(C(=O)N(C)CCCN(C)C)n4Cc4ccccc43)cc2OC)c1` [Example 108, 10-[(2,3′-Dimethoxy[1,1′-biphenyl]-4-yl)carbonyl]-N-[3-(dimethylamino)propyl]-N-methyl-10,11-dihydro-5H-pyrrolo[2,1-c][1,4]benzodiazepine-3-carboxamide], the inhibition at 0.1 µM stood at 52%.

For the molecule `CN(C)CCCN(C)C(=O)c1ccc2n1Cc1ccccc1N(C(=O)c1ccc(-c3cccc4ccccc34)cc1Cl)C2` [Example 109, 10-[2-Chloro-4-(1-naphthyl)benzoyl]-N-[3-(dimethylamino)propyl]-N-methyl-10,11-dihydro-5H-pyrrolo[2,1-c][1,4]benzodiazepine-3-carboxamide], the inhibition at 0.1 µM stood at 9%.

For `COc1ccccc1-c1ccc(C(=O)N2Cc3ccc(C(=O)N4CCC(N5CCCCC5)CC4)n3Cc3ccccc32)cc1C` [Example 112, {10-[(2-Methyl-2′-methoxy[1,1′-biphenyl]-4-yl)carbonyl]-10,11-dihydro-5H-pyrrolo[2,1-c][1,4]benzodiazepin-3-yl}[4-(1-piperidinyl)-1-piperidinyl]methanone], the inhibition at 0.1 µM was 8%.

With `Cc1ccccc1-c1ccc(C(=O)N2Cc3ccc(C(=O)N4CCC(N5CCCCC5)CC4)n3Cc3ccccc32)cc1C` [Example 113, {10-[(2-Methyl-2′-methyl[1,1′-biphenyl]-4-yl)carbonyl]-10,11-dihydro-5H-pyrrolo[2,1-c][1,4]benzodiazepin-3-yl}[4-(1-piperidinyl)-1-piperidinyl]methanone], the inhibition at 0.1 µM was determined as 45%.

Turning to `COc1cccc(-c2ccc(C(=O)N3Cc4ccc(C(=O)N5CCC(N6CCCCC6)CC5)n4Cc4ccccc43)cc2C)c1` [Example 114, {10-[(2-Methyl-3′-methoxy[1,1′-biphenyl]-4-yl)carbonyl]-10,11-dihydro-5H-pyrrolo[2,1-c][1,4]benzodiazepin-3-yl}[4-(1-piperidinyl)-1-piperidinyl]methanone], the inhibition at 0.1 µM was determined as 11%.

On to `Cc1ccccc1-c1ccc(C(=O)N2Cc3ccc(C(=O)N4CCC(N5CCCCC5)CC4)n3Cc3ccccc32)cc1` [Example 115, {10-[(2′-Methyl[1,1′-biphenyl]-4-yl)carbonyl]-10,11-dihydro-5H-pyrrolo[2,1-c][1,4]benzodiazepin-3-yl}[4-(1-piperidinyl)-1-piperidinyl]methanone], for which the inhibition at 0.1 µM was 11%.

Regarding `COc1cc(C(=O)N2Cc3ccc(C(=O)N4CCC(N5CCCCC5)CC4)n3Cc3ccccc32)ccc1-c1ccccc1C` [Example 116, {10-[(2-Methoxy-2′-methyl[1,1′-biphenyl]-4-yl)carbonyl]-10,11-dihydro-5H-pyrrolo[2,1-c][1,4]benzodiazepin-3-yl}[4-(1-piperidinyl)-1-piperidinyl]methanone], the inhibition at 0.1 µM was 42%.

For `COc1cccc(-c2cc(OC)c(C(=O)N3Cc4ccc(C(=O)N5CCC(N6CCCCC6)CC5)n4Cc4ccccc43)cc2Cl)c1` [Example 117, {10-[(6-Chloro-3-methoxy-3′-methoxy[1,1′-biphenyl]-4-yl)carbonyl]-10,11-dihydro-5H-pyrrolo[2,1-c][1,4]benzodiazepin-3-yl}[4-(1-piperidinyl)-1-piperidinyl]methanone], the inhibition at 0.1 µM is -3%.

Turning to `COc1cc(C(=O)N2Cc3ccc(C(=O)N4CCC(N5CCCCC5)CC4)n3Cc3ccccc32)ccc1-c1cccc2ccccc12` [Example 118, {10-[3-Methoxy-4-(1-naphthyl)-benzoyl]-10,11-dihydro-5H-pyrrolo[2,1-c][1,4]benzodiazepin-3-yl}[4-(1-piperidinyl)-1-piperidinyl]methanone], the inhibition at 0.1 µM amounted to 14%.

Consider `COc1ccccc1-c1ccc(C(=O)N2Cc3ccc(C(=O)N4CCC(N5CCCCC5)CC4)n3Cc3ccccc32)cc1OC` [Example 119, {10-[(2,2′-Dimethoxy-[1,1′-biphenyl]-4-yl)carbonyl]-10,11-dihydro-5H-pyrrolo[2,1-c][1,4]benzodiazepin-3-yl}[4-(1-piperidinyl)-1-piperidinyl]methanone], for which the inhibition at 0.1 µM worked out at 9%.
